Assays:
Mus musculus [1] = test: Tumor inhibition expressed as (average tumor weight of treated group/average tumor weight of control group)*100 at a dose of (8 mg/kg); type: functional
[2] = Toxicity expressed in terms of number of toxic deaths after administration (8 mg/Kg) in athymic mice; out of 6 tested; details: mouse, in vivo
Mus musculus [3] = test: Percentage change in the body weight on day 20 after intravenous administration (10 mg/kg) against B16 melanoma (implanted subcutaneously in mice).; type: functional
PG-49 cell line [4] = test: Cytotoxicity expressed as concentration required to inhibit cell growth by 50% on continuous exposure time of 96h in PG-49 cell line by MTT assay.; type: functional, cell-based; details: Homo sapiens, PG-49, 96 h
[5] = Toxicity expressed in terms of number of toxic deaths after administration (10 mg/Kg) in mice; out of 10 tested; details: mouse, in vivo
Mus musculus [6] = test: Tumor inhibition expressed as (average tumor weight of treated group/average tumor weight of control group)*100 at a dose of 10 mg/kg; type: functional
Mus musculus [7] = test: Percentage change in the body weight on day 20 after intravenous administration (8 mg/Kg) against human breast cancer xenograph Bcap-37 (grown sc in athymic mice); type: functional
L1210 [8] = test: Cytotoxicity expressed as concentration required to inhibit cell growth by 50% on continuous exposure time of 96h in L1210 cell line by MTT assay.; type: functional, cell-based; details: Mus musculus, L1210, 96 h
L1210 [9] = test: Cytotoxicity expressed as concentration required to inhibit cell growth by 50% on continuous exposure time of 72 hr in L1210 cell line by MTT assay.; type: functional, cell-based; details: Mus musculus, L1210, 72 h
PG-49 cell line [10] = test: Cytotoxicity expressed as concentration required to inhibit cell growth by 50% on continuous exposure time of 72 hr in PG-49 cell line by MTT assay.; type: functional, cell-based; details: Homo sapiens, PG-49, 72 h

For `CC(=O)O[C@H]1C(=O)[C@@]2(C)[C@H]([C@H](OC(=O)c3ccccc3)[C@]3(O)C[C@H](OC(=O)[C@H](O)[C@@H](NC(=O)c4ccccc4)c4ccccc4)C(C)=C1C3(C)C)[C@]1(OC(C)=O)CO[C@@H]1C[C@@H]2O` [PACLITAXEL], the Tumor inhibition (Mus musculus [1]) was 78.02%, the Toxicity [2] was 0 and the Body weight change (Mus musculus [3]) was 7.8%. The IC50 (PG-49 cell line [4]) was 0.31 nM, the Toxicity [5] was 2 and the Tumor inhibition (Mus musculus [6]) was 71.4%. The Body weight change (Mus musculus [7]) was 16.9%, the IC50 (L1210 [8]) was 0.09 nM and the IC50 (L1210 [9]) was 0.58 nM. It also gave an IC50 (PG-49 cell line [10]) of 2.14 nM.

Reference: ChEMBL document CHEMBL1134969, “Synthesis and evaluation of water-soluble paclitaxel prodrugs” (Bioorg Med Chem Lett, 2002)
